# Assay results published in article PMC3848336, “Aurora Isoform Selectivity: Design and Synthesis of Imidazo[4,5-b]pyridine Derivatives as Highly Selective Inhibitors of Aurora-A Kinase in Cells” (Journal of Medicinal Chemistry, 2013).
# Like-named read-outs stand apart in the source and are kept apart here.
# Legend:
# Assay in all cases: Kinase selectivity profiling
# Type in all cases: biochemical
# Aurora B = Aurora B (Homo sapiens, UniProt Q96GD4)
# BTK = BTK (Homo sapiens, UniProt Q06187)
# Excerpt: (§1) Compound 28c was profiled against a panel of 110 kinases at the International Centre for Protein Kinase Profiling, Division of Signal Transduction Therapy, University of Dundee. Compound 40f was profiled against a panel of 50 kinases (MRC-PPU Express Screen) also at the International Centre for Protein Kinase Profiling.
# IGF-1R = IGF-1R (Homo sapiens, UniProt P08069); settings: read-out: % activity remaining, IGF21R
# Excerpt: as §1
# PKCa = PKCa (Homo sapiens, UniProt P17252)
# Excerpt: as §1
# JAK2 = JAK2 (Homo sapiens, UniProt O60674)
# Excerpt: as §1
# SYK = SYK (Homo sapiens, UniProt P43405)
# Excerpt: as §1
# HIPK2 = HIPK2 (Homo sapiens, UniProt Q9H2X6)
# Excerpt: as §1
# MLK3 = MLK3 (Homo sapiens, UniProt Q16584)
# Excerpt: as §1
# CAMKKb = CAMKKb (Homo sapiens, UniProt Q96RR4)
# Excerpt: as §1
# p38a MAPK = p38a MAPK (Homo sapiens, UniProt Q16539)
# Excerpt: as §1
# PKA = PKA (Homo sapiens, UniProt P17612)
# Excerpt: as §1
# PIM1 = PIM1 (Homo sapiens, UniProt P11309)
# Excerpt: as §1
# MST2 = MST2 (Homo sapiens, UniProt Q13188)
# Excerpt: as §1
# CHK2 = CHK2 (Homo sapiens, UniProt O96017)
# Excerpt: as §1
# PKBa = PKBa (Homo sapiens, UniProt P31749, S473D)
# Excerpt: as §1
# CK2 = CK2 (Homo sapiens, UniProt P68400)
# Excerpt: as §1
# SmMLCK = SmMLCK (Homo sapiens, UniProt Q15746)
# Excerpt: as §1
# RSK1 = RSK1 (Homo sapiens, UniProt Q15418)
# Excerpt: as §1
# CAMK1 = CAMK1 (Homo sapiens, UniProt Q14012)
# Excerpt: as §1
# MSK1 = MSK1 (Homo sapiens, UniProt O75582)
# Excerpt: as §1
# S6K1 = S6K1 (Homo sapiens, UniProt P23443)
# Excerpt: as §1
# EF2K = EF2K (Homo sapiens, UniProt O00418)
# Excerpt: as §1
# TBK1 = TBK1 (Homo sapiens, UniProt Q9UHD2)
# Excerpt: as §1
# DYRK1A = DYRK1A (Homo sapiens, UniProt Q13627)
# Excerpt: as §1
# GSK3b = GSK3b (Homo sapiens, UniProt P49841)
# Excerpt: as §1
# IRAK4 = IRAK4 (Homo sapiens, UniProt Q9NWZ3)
# Excerpt: as §1
# PDK1 = PDK1 (Homo sapiens, UniProt O15530)
# Excerpt: as §1
# MKK1 = MKK1 (Homo sapiens, UniProt Q02750)
# Excerpt: as §1
# EPH-A2 = EPH-A2 (Homo sapiens, UniProt P29317); settings: read-out: % activity remaining, EPH2A2
# Excerpt: as §1
# PLK1 = PLK1 (Homo sapiens, UniProt P53350)
# Excerpt: as §1
# Lck = Lck (Homo sapiens, UniProt P06239)
# Excerpt: as §1
# ROCK 2 = ROCK 2 (Rattus norvegicus, UniProt Q62868)
# Excerpt: as §1
# VEGFR (VEGFR1) = VEGFR (VEGFR1) (Homo sapiens, UniProt P17948); settings: read-out: % activity remaining, VEG2FR
# Excerpt: as §1
# HER4 = HER4 (Homo sapiens, UniProt Q15303)
# Excerpt: as §1
# PKD1 = PKD1 (Homo sapiens, UniProt Q15139)
# Excerpt: as §1
# SGK1 = SGK1 (Homo sapiens, UniProt O00141)
# Excerpt: as §1
# TAK1 = TAK1 (Homo sapiens, UniProt O43318)
# Excerpt: as §1
# Src = Src (Homo sapiens, UniProt P12931)
# Excerpt: as §1
# NEK6 = NEK6 (Homo sapiens, UniProt Q9HC98)
# Excerpt: as §1
# MARK3 = MARK3 (Homo sapiens, UniProt P27448)
# Excerpt: as §1
# RIPK2 = RIPK2 (Homo sapiens, UniProt O43353)
# Excerpt: as §1
# SRPK1 = SRPK1 (Homo sapiens, UniProt Q96SB4)
# Excerpt: as §1
# [1] = 50-kinase panel (MRC-PPU Express Screen)
# Sequence of MARK3 (P27448 whole entry): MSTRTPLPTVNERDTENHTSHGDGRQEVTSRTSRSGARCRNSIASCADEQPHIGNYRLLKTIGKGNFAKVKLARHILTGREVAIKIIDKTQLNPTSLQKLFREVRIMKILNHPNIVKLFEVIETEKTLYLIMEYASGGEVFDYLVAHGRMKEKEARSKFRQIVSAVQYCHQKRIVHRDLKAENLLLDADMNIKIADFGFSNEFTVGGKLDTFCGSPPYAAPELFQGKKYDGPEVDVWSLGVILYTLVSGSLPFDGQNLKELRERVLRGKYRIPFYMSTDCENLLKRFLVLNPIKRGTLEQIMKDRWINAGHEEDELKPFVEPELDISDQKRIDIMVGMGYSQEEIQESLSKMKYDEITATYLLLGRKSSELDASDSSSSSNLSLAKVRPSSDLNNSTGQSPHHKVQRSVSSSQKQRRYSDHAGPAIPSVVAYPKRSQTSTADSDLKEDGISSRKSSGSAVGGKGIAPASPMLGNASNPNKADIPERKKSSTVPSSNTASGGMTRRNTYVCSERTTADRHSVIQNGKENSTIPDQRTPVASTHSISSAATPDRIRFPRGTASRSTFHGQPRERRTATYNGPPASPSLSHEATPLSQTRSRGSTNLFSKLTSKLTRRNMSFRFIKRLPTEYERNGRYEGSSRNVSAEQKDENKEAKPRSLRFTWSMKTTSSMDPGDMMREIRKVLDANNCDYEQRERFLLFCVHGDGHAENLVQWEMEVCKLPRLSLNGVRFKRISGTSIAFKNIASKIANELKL
# Sequence of PKBa (P31749 118-480 S473D limits assumed): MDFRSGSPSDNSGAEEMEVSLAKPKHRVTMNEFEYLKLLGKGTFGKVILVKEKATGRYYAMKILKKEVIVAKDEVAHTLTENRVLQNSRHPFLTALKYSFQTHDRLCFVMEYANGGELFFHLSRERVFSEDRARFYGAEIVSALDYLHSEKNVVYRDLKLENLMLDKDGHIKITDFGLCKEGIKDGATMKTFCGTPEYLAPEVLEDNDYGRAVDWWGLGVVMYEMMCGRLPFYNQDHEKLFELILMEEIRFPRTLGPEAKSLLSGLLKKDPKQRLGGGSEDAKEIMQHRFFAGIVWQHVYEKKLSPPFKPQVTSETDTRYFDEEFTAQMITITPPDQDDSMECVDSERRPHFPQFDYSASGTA
# Sequence of PIM1 (P11309 whole entry): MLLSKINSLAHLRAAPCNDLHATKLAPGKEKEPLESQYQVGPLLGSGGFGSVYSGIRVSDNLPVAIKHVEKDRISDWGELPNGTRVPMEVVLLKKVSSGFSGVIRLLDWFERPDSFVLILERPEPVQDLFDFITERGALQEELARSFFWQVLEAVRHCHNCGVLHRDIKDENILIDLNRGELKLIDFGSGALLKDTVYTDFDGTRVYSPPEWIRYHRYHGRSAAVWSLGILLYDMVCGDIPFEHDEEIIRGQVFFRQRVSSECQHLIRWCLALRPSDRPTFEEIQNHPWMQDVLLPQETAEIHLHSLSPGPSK
# Sequence of EPH-A2 (P29317 24-976): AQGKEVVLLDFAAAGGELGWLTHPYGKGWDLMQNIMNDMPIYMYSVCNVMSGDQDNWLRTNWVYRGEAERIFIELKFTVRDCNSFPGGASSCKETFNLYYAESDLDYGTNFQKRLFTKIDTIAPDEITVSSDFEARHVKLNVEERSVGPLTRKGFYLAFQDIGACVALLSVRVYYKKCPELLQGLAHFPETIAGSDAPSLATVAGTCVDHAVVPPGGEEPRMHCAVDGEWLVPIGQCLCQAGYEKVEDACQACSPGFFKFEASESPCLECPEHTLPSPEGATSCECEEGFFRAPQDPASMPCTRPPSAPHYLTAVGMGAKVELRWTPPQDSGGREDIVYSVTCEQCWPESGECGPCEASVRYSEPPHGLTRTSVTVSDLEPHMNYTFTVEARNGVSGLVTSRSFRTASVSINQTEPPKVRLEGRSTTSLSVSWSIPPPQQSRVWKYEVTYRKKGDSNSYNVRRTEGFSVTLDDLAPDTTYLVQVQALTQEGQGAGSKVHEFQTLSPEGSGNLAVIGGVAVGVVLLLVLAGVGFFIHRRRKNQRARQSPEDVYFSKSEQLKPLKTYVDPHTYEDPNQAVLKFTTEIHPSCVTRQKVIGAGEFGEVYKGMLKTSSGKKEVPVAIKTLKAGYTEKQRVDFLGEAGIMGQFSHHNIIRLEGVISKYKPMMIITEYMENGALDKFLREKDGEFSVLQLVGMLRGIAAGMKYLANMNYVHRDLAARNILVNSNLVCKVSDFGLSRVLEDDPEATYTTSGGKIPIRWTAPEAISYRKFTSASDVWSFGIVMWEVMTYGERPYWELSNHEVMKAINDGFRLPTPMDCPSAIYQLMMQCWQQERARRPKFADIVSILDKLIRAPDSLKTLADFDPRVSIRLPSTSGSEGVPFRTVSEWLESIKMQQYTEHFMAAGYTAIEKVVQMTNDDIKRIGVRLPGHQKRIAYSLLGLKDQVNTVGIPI
# Sequence of NEK6 (Q9HC98 whole entry): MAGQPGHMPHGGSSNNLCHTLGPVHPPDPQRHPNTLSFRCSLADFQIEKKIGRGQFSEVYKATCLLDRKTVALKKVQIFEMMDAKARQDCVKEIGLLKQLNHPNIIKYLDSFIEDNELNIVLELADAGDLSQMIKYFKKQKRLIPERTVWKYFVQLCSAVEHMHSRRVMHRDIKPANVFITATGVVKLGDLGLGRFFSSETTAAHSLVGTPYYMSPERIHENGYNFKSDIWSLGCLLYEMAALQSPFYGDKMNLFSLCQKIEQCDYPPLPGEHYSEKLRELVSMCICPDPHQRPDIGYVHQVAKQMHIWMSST
# Sequence of BTK (Q06187 whole entry): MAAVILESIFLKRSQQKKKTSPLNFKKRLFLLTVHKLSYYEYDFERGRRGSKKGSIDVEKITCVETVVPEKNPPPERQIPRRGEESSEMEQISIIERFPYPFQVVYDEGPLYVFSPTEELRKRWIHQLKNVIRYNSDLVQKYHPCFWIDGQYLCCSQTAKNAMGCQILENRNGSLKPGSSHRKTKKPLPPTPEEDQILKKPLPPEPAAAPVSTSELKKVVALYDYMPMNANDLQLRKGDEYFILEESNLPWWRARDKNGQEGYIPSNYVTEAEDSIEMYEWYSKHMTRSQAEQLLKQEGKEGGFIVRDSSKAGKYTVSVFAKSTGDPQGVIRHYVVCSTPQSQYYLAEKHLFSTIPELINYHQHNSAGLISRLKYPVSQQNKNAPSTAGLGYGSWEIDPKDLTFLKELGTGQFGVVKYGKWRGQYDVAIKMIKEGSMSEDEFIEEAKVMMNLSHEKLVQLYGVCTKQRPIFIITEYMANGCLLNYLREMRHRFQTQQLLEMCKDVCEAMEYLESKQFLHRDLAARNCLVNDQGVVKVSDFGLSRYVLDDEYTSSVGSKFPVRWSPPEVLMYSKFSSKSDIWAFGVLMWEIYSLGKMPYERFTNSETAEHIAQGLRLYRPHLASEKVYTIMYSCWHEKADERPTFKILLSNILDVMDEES
# Sequence of TAK1 (O43318 1-303 limits assumed): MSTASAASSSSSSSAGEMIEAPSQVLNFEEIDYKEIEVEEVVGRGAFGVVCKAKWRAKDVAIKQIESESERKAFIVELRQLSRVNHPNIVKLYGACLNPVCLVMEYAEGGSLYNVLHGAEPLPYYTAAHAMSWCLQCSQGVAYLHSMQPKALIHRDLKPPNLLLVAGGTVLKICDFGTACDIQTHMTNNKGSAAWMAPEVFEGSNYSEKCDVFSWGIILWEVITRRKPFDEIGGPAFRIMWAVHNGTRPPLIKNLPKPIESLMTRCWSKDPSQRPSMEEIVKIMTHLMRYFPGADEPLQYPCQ
# Sequence of RSK1 (Q15418 whole entry, species assumed): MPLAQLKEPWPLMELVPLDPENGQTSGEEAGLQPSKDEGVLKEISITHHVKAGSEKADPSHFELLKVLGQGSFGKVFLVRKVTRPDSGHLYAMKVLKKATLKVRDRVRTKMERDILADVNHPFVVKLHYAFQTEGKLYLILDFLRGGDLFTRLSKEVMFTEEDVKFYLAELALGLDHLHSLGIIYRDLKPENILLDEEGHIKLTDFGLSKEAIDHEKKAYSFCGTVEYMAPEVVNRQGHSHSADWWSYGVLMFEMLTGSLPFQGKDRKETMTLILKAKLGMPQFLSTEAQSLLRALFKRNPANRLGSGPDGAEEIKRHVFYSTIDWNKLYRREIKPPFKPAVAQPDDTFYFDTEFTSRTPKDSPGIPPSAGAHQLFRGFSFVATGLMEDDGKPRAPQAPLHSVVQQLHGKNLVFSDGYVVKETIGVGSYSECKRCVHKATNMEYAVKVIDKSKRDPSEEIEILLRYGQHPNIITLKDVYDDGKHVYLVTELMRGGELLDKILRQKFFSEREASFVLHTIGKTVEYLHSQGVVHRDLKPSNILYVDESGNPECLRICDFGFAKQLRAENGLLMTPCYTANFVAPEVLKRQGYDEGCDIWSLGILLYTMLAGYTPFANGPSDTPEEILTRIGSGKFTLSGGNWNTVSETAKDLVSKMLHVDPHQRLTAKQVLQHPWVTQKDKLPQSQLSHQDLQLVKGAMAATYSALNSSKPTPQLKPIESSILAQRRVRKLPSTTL
# Sequence of RIPK2 (O43353 whole entry): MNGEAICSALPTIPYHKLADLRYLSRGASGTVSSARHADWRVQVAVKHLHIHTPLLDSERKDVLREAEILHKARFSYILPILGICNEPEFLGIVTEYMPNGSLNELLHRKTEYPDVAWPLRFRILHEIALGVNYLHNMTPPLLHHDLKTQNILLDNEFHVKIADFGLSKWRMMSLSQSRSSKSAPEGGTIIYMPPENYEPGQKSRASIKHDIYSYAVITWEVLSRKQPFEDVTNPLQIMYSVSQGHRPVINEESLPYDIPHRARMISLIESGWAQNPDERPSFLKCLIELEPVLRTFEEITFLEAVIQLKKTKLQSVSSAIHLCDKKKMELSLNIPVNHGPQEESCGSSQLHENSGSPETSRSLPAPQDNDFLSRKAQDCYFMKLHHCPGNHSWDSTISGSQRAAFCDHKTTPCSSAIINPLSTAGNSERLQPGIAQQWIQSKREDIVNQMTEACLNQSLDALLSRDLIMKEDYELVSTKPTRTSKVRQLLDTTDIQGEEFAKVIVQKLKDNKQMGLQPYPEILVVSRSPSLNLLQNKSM
compound,measurement,setting,value
"Cc1nn(C)cc1-c1nc2c(Oc3ccc(C(=O)NC4CCC4)cc3)c(Cl)cnc2[nH]1 [compound 40f, 4-((6-Chloro-2-(1,3-dimethyl-1H-pyrazol-4-yl)-3H-imidazo[4,5-b]pyridin-7-yl)oxy)-N-cyclobutylbenzamide]",remaining activity at 1 µM,Aurora B; [1],66%
same,remaining activity at 1 µM,BTK; [1],101%
same,remaining activity at 1 µM,IGF-1R; [1],78%
same,remaining activity at 1 µM,PKCa; [1],96%
same,remaining activity at 1 µM,JAK2; [1],75%
same,remaining activity at 1 µM,SYK; [1],84%
same,remaining activity at 1 µM,HIPK2; [1],98%
same,remaining activity at 1 µM,MLK3; [1],31%
same,remaining activity at 1 µM,CAMKKb; [1],86%
same,remaining activity at 1 µM,p38a MAPK; [1],107%
same,remaining activity at 1 µM,PKA; [1],90%
same,remaining activity at 1 µM,PIM1; [1],87%
same,remaining activity at 1 µM,MST2; [1],141%
same,remaining activity at 1 µM,CHK2; [1],85%
same,remaining activity at 1 µM,PKBa; [1],96%
same,remaining activity at 1 µM,CK2; [1],93%
same,remaining activity at 1 µM,SmMLCK; [1],87%
same,remaining activity at 1 µM,RSK1; [1],90%
same,remaining activity at 1 µM,CAMK1; [1],85%
same,remaining activity at 1 µM,MSK1; [1],94%
same,remaining activity at 1 µM,S6K1; [1],81%
same,remaining activity at 1 µM,EF2K; [1],100%
same,remaining activity at 1 µM,TBK1; [1],93%
same,remaining activity at 1 µM,DYRK1A; [1],104%
same,remaining activity at 1 µM,GSK3b; [1],25%
same,remaining activity at 1 µM,IRAK4; [1],89%
same,remaining activity at 1 µM,PDK1; [1],86%
same,remaining activity at 1 µM,MKK1; [1],94%
same,remaining activity at 1 µM,EPH-A2; [1],88%
same,remaining activity at 1 µM,PLK1; [1],104%
same,remaining activity at 1 µM,Lck; [1],95%
same,remaining activity at 1 µM,ROCK 2; [1],73%
same,remaining activity at 1 µM,VEGFR (VEGFR1); [1],7%
same,remaining activity at 1 µM,HER4; [1],92%
same,remaining activity at 1 µM,PKD1; [1],113%
same,remaining activity at 1 µM,SGK1; [1],85%
same,remaining activity at 1 µM,TAK1; [1],59%
same,remaining activity at 1 µM,Src; [1],86%
same,remaining activity at 1 µM,NEK6; [1],90%
same,remaining activity at 1 µM,MARK3; [1],107%
same,remaining activity at 1 µM,RIPK2; [1],107%
same,remaining activity at 1 µM,SRPK1; [1],95%
"Cc1nn(C)cc1-c1nc2c(Oc3ccc(C(=O)Nc4ccccc4)cc3)c(Cl)cnc2[nH]1 [compound 28c, 4-((6-Chloro-2-(1,3-dimethyl-1H-pyrazol-4-yl)-3H-imidazo[4,5-b]pyridin-7-yl)oxy)-N-phenylbenzamide]",remaining activity at 1 µM,Aurora B; 110-kinase panel,25%
same,remaining activity at 1 µM,BTK; 110-kinase panel,110%
same,remaining activity at 1 µM,IGF-1R; 110-kinase panel,98%
same,remaining activity at 1 µM,PKCa; 110-kinase panel,110%
same,remaining activity at 1 µM,JAK2; 110-kinase panel,63%
same,remaining activity at 1 µM,SYK; 110-kinase panel,117%
same,remaining activity at 1 µM,HIPK2; 110-kinase panel,83%
same,remaining activity at 1 µM,MLK3; 110-kinase panel,46%
same,remaining activity at 1 µM,CAMKKb; 110-kinase panel,86%
same,remaining activity at 1 µM,p38a MAPK; 110-kinase panel,91%
same,remaining activity at 1 µM,PKA; 110-kinase panel,101%
same,remaining activity at 1 µM,PIM1; 110-kinase panel,99%
same,remaining activity at 1 µM,MST2; 110-kinase panel,106%
same,remaining activity at 1 µM,CHK2; 110-kinase panel,111%
same,remaining activity at 1 µM,PKBa; 110-kinase panel,105%
same,remaining activity at 1 µM,CK2; 110-kinase panel,108%
same,remaining activity at 1 µM,SmMLCK; 110-kinase panel,91%
same,remaining activity at 1 µM,RSK1; 110-kinase panel,88%
same,remaining activity at 1 µM,CAMK1; 110-kinase panel,100%
same,remaining activity at 1 µM,MSK1; 110-kinase panel,89%
same,remaining activity at 1 µM,S6K1; 110-kinase panel,81%
same,remaining activity at 1 µM,EF2K; 110-kinase panel,93%
same,remaining activity at 1 µM,TBK1; 110-kinase panel,86%
same,remaining activity at 1 µM,DYRK1A; 110-kinase panel,105%
same,remaining activity at 1 µM,GSK3b; 110-kinase panel,8%
same,remaining activity at 1 µM,IRAK4; 110-kinase panel,95%
same,remaining activity at 1 µM,PDK1; 110-kinase panel,87%
same,remaining activity at 1 µM,MKK1; 110-kinase panel,77%
same,remaining activity at 1 µM,EPH-A2; 110-kinase panel,138%
same,remaining activity at 1 µM,PLK1; 110-kinase panel,107%
same,remaining activity at 1 µM,Lck; 110-kinase panel,110%
same,remaining activity at 1 µM,ROCK 2; 110-kinase panel,80%
same,remaining activity at 1 µM,VEGFR (VEGFR1); 110-kinase panel,17%
same,remaining activity at 1 µM,HER4; 110-kinase panel,95%
same,remaining activity at 1 µM,PKD1; 110-kinase panel,109%
same,remaining activity at 1 µM,SGK1; 110-kinase panel,99%
same,remaining activity at 1 µM,TAK1; 110-kinase panel,31%
same,remaining activity at 1 µM,Src; 110-kinase panel,80%
same,remaining activity at 1 µM,NEK6; 110-kinase panel,129%
same,remaining activity at 1 µM,MARK3; 110-kinase panel,83%
same,remaining activity at 1 µM,RIPK2; 110-kinase panel,98%
same,remaining activity at 1 µM,SRPK1; 110-kinase panel,89%
